Source: ChEMBL document CHEMBL1201862, “PubChem BioAssay data set” (2004)
Calls of active or inactive are those of the source.

Columns and labels:
[1] = HEp-2 cell cytotoxicity, dose response, cytotoxicity control for RSV inhibitor project, HTS (AID 2410); assay type: functional; settings: human respiratory syncytial virus
[2] = test system: BJ; test: cytotoxicity toward BJ-TERT fibroblasts, dose response, cell-based, RAS-independent, luminescence (AID 1933); assay type: functional; settings: Homo sapiens
[3] = test system: BJ; test: cells; assay type: functional, cell-based; settings: Homo sapiens
[4] = inhibitors of intracellular T. cruzi replication, confirmation, NIH3T3 host cells, beta-gal luminescence (AID 2044); assay type: functional, cell-based;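 further: intracellular parasites grown in NIH/3T3 mouse fibroblasts as host cells; luminescent beta-galactosidase reporter signal from transgenic T. cruzi replicating inside host cells; inhibitors lower the luminescence signal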
[5] = test system: BJ; test: cytotoxicity toward BJ-TERT-LT-ST fibroblasts, dose response, cell-based, RAS-independent, luminescence (AID 1935); assay type: functional; settings: Homo sapiens;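 further: BJ fibroblasts immortalized with TERT plus LT and ST oncogenes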
[6] = cytotoxicity toward DRD oncogenic fibroblasts, dose response, cell-based, non-viral oncogenic, luminescence (AID 1934); assay type: functional; settings: Homo sapiens
[7] = biological target: T1, Microphthalmia-associated transcription factor (Homo sapiens, UniProt O75030); test: TRPM1 promoter luciferase signal decrease, dose response, MITF inhibitor project, cell-based, SK-MEL-5, cherry-picked, set 3 (AID 493073); assay type: functional
T1 sequence (O75030 whole entry): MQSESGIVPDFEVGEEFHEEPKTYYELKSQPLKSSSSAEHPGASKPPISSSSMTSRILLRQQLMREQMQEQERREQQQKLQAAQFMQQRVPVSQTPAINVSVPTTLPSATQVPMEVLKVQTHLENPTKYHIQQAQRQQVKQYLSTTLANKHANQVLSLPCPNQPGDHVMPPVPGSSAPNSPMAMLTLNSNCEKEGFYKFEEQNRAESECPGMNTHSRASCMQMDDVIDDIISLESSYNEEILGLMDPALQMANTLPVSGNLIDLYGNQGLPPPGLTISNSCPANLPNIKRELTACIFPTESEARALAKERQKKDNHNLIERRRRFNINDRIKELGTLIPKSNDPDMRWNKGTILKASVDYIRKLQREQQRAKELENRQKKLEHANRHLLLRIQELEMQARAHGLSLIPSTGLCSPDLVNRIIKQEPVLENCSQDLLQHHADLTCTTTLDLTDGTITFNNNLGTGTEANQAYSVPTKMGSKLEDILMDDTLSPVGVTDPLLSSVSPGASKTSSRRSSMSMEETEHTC

[8] = biological target: Beta-2 adrenergic receptor (Homo sapiens, UniProt P07550); test: beta2AR agonists driving receptor internalization, dose response, cell-based, FAP fluorogen, flow cytometry, cherry pick 1 (AID 588763); assay type: functional
Chain of Beta-2 adrenergic receptor (P07550 whole entry): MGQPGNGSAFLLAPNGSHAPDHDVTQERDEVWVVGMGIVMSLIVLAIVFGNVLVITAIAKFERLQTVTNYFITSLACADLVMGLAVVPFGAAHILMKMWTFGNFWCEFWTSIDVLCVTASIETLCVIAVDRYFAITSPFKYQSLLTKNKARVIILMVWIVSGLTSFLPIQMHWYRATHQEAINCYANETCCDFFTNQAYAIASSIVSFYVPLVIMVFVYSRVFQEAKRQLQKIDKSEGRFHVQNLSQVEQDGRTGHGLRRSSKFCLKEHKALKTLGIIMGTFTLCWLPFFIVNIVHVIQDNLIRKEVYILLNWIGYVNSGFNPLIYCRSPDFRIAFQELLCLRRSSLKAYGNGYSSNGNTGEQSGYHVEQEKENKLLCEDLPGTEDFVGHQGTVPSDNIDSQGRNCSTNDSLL

[9] = A549 cell cytotoxicity, dose response, cytotoxicity control, plate reader, cherry-pick, antagonist series (AID 743412); assay type: functional, cell-based
[10] = LGR2 antagonists, dose response, cell-based, HEK293, CRE-luciferase reporter, cherry pick, set 2 (AID 743343); assay type: functional;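 further: transfected cells were stimulated with diluted bursicon conditioned medium after compound addition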
[11] = MC4R antagonists, dose response, counter-screen for LGR2 antagonist project, cell-based, plate reader, cherry pick (AID 743444); assay type: functional;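 further: transfected HEK 293 cells stimulated with alpha-MSH peptide; potency of inhibitors of the alpha-MSH evoked signal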
[12] = biological target: Cytochrome P450 2C19 (Homo sapiens, UniProt P33261); test: Cytochrome panel assay with activity outcomes. Panel member name: p450-cyp2c19 Compounds with AC50 equal or less than 10 uM are considered active; assay type: functional
Chain of Cytochrome P450 2C19 (P33261 whole entry): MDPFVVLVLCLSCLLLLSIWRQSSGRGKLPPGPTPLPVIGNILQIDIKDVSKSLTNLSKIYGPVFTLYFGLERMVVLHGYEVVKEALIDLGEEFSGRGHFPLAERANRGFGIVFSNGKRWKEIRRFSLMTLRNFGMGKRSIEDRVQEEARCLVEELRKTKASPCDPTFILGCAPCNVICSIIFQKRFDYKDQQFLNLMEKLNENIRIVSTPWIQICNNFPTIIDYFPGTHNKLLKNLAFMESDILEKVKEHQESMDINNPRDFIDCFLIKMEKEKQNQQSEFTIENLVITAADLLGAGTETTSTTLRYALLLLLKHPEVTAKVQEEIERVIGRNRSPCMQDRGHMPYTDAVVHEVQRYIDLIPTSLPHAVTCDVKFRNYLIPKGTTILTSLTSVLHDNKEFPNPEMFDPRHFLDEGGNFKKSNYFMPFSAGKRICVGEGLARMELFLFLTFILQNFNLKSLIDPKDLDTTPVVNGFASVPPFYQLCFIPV

[13] = biological target: Cytochrome P450 2C9 (Homo sapiens, UniProt P11712)
Chain of Cytochrome P450 2C9 (P11712 whole entry, the tested form may be a part): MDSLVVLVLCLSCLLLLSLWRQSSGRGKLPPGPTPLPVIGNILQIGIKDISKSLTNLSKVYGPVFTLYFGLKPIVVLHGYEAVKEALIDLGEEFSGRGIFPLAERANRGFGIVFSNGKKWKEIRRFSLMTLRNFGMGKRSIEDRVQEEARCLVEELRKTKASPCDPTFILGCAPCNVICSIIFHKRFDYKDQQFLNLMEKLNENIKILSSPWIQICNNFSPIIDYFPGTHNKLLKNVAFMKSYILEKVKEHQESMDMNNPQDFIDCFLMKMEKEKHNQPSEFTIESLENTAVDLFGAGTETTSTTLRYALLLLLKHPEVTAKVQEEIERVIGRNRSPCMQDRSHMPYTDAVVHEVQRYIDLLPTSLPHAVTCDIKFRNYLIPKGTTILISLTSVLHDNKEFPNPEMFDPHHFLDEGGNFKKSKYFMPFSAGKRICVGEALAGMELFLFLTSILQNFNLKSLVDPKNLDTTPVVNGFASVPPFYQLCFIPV

[14] = biological target: T2, Carboxy-terminal domain RNA polymerase II polypeptide A small phosphatase 1 (Homo sapiens, UniProt Q9GZU7); test: inhibitors of CTDSP1, concentration-response testing, biochemical assay, absorbance-based, actives from ultra-high-throughput screening (AID 540297); assay type: functional
T2 sequence (Q9GZU7 whole entry): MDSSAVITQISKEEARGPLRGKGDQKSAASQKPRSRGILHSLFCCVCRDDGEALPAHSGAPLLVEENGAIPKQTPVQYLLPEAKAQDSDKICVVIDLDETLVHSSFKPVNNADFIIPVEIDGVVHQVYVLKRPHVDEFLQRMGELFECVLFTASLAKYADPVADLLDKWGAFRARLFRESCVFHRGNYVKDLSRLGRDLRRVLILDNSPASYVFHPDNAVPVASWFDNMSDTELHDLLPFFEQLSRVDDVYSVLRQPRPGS

[15] = biological target: T3, Short transient receptor potential channel 4 (Mus musculus, UniProt Q9QUQ5); test: mouse TRPC4 channel activators, dose response, cell-based, HEK293 TRPC4/mu-opioid, Fluo-4 calcium (AID 434937); assay type: functional
T3 sequence (Q9QUQ5 whole entry): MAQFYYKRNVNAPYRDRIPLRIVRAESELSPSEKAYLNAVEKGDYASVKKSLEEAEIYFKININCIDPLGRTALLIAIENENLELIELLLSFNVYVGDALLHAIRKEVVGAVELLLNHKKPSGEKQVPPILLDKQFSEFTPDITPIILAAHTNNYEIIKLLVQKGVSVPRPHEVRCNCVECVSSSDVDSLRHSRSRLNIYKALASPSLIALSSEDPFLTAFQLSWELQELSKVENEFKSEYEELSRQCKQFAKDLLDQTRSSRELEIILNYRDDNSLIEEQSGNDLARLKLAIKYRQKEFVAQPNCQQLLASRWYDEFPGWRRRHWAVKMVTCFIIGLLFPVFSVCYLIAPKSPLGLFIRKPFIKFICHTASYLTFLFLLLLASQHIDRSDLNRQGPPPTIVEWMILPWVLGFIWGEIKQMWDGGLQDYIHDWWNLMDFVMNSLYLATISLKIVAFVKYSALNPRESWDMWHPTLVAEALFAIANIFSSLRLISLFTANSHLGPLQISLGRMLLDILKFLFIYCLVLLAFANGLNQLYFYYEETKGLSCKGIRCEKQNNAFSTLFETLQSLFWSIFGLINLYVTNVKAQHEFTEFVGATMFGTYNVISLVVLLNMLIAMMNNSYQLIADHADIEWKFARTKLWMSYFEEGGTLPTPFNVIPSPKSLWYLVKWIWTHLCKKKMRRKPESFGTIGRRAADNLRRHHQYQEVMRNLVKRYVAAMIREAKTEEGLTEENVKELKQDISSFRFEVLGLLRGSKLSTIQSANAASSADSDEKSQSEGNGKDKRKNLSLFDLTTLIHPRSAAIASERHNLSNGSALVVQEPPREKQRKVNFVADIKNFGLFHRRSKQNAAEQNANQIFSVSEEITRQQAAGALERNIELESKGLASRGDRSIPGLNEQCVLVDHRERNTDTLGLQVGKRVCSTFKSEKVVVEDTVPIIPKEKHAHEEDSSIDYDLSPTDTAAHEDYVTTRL

[16] = THP-1 cell cytotoxicity, dose response, cytotoxicity control for non-replicating M. tuberculosis project (AID 489025); assay type: functional
[17] = biological target: T4, X-box-binding protein 1 (Homo sapiens, UniProt P17861); assay type: functional, Cricetulus griseus;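 further: confirmatory dose-response counter-screen serving a CHOP assay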
T4 sequence (P17861 whole entry): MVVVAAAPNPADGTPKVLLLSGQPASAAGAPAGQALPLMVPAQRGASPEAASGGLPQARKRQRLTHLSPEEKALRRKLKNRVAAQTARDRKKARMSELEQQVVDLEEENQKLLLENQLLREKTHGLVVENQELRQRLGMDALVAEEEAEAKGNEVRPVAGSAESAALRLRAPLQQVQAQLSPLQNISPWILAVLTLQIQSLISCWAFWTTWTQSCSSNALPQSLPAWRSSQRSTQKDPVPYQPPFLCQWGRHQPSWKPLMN

[18] = cells; assay type: functional
[19] = test system: BJ; test: cytotoxicity toward Ras-transformed BJeLR fibroblasts, dose response, cell-based, alamar blue fluorescence, cherrypicked samples (AID 2631); assay type: functional; settings: Homo sapiens;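 further: confirmatory dose-response assay in RAS-dependent BJ fibroblasts engineered with TERT, LT and ST, with cytotoxicity read by fluorescence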
[20] = test system: HEK293; test: NOD1 signaling inhibitors, primary screen, cell-based, luminescence, uHTS (AID 1578); assay type: functional; settings: Homo sapiens
[21] = test system: HEK293; test: cells; assay type: functional, cell-based; settings: Homo sapiens
[22] = test system: HEK293; test: cells; assay type: functional, cell-based; settings: Homo sapiens; remark: listed apart in the source
[23] = biological target: Nucleotide-binding oligomerization domain-containing protein 2 (Homo sapiens, UniProt Q9HC29); test: NOD2 signaling inhibitors, cell-based, luminescence, uHTS, HEK293 (AID 1566); assay type: functional
Chain of Nucleotide-binding oligomerization domain-containing protein 2 (Q9HC29 whole entry, the tested form may be a part): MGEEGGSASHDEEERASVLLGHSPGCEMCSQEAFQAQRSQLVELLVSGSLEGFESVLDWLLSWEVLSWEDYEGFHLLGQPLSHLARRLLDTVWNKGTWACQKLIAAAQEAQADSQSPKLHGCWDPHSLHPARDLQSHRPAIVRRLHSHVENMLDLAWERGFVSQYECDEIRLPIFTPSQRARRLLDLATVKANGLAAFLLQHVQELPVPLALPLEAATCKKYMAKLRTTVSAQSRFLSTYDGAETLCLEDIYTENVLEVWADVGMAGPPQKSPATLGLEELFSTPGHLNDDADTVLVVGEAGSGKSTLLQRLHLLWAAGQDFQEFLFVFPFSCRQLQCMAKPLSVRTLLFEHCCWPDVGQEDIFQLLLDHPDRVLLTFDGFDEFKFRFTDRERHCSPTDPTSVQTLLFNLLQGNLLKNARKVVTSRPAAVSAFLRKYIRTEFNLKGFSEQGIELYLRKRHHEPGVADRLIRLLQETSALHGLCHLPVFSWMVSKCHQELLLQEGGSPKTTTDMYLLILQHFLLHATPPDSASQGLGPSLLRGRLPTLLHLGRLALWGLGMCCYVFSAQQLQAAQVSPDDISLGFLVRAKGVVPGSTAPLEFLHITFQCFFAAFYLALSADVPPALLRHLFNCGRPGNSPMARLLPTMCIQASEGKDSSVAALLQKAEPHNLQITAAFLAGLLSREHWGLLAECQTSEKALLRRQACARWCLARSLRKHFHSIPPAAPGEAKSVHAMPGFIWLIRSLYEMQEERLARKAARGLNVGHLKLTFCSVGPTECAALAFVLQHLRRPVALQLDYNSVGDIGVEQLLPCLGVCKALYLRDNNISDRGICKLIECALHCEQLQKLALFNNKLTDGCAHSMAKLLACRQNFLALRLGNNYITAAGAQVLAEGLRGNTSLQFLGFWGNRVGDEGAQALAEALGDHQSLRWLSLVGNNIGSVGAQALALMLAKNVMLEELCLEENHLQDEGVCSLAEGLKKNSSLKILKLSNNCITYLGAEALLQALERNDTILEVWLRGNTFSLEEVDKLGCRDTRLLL

[24] = test system: HEK293; test: NOD2 signaling inhibitors in MDP-stimulated cells, cell-based, uHTS, luminescence (AID 2001); assay type: functional; settings: Homo sapiens
[25] = cytotoxicity toward NIH3T3 fibroblasts, dose response, counter-screen, cell-based, ATP luminescence, mouse fibroblasts (AID 2010); assay type: functional;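 further: cells exposed to compound for about 90 hours before reading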
[26] = biological target: Cytochrome P450 2D6 (Homo sapiens, UniProt P10635);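 further: CYP2D6 member of a cytochrome P450 panel assay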
Chain of Cytochrome P450 2D6 (P10635 whole entry): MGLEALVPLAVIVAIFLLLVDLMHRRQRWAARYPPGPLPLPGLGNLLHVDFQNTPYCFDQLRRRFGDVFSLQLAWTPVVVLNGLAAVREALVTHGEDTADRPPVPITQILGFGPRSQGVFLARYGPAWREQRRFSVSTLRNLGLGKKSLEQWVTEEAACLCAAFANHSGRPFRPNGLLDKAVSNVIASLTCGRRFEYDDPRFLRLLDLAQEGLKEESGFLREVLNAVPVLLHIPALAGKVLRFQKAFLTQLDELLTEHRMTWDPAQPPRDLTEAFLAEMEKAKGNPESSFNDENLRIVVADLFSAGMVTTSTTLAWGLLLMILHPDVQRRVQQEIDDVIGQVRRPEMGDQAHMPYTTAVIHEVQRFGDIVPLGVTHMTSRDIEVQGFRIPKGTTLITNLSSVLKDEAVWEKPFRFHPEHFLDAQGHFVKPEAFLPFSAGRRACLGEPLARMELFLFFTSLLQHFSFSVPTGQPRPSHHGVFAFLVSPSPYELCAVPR

[27] = biological target: T5, Cytochrome P450 1A2 (Homo sapiens, UniProt P05177);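 further: PubChem cytochrome P450 panel assay, CYP1A2 panel member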
T5 sequence (P05177 whole entry): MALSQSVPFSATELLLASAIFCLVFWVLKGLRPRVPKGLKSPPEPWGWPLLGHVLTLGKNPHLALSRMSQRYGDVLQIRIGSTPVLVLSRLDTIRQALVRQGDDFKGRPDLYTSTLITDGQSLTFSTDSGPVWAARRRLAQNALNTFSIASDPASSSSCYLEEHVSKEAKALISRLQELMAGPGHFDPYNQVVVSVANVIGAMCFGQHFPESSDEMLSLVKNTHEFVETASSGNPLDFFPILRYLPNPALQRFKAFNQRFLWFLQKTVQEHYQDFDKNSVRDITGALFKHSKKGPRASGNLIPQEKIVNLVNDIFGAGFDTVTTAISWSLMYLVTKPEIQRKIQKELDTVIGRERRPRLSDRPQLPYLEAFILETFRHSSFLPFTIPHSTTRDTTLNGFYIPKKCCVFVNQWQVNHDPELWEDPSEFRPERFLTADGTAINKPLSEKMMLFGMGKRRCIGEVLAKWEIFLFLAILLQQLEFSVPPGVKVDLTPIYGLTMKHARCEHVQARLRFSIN

[28] = test system: HeLa; test: HeLa cell cytotoxicity, dose response, cytotoxicity control for MITF activator project, CellTiter-Glo luminescence, cherry-pick samples (AID 540259); assay type: functional, cell-based; settings: Homo sapiens

## O=C(COC(=O)c1ccccc1C(=O)c1ccc(Cl)c([N+](=O)[O-])c1)NC1CC1
[1]
  CC50: 10.2 µM (active)
[2]
  EC50: 5.11 µM (active)
[3]
  EC50: 6.82 µM (inconclusive)
[4]
  EC50: 3.79 µM (active)
[5]
  EC50: 92.6 µM (inconclusive)
[6]
  EC50: 10.1 µM (inconclusive)
[7]
  AC50: 8.92 µM (active)
[8]
  EC50: 13.3 µM (inactive)
[9]
  AC50: 7.05 µM (active)
[10]
  AC50: 11.8 µM (active)
[11]
  AC50: 15.4 µM (active)

## CCCC12CN3CC(CCC)(CN(C1)C3C(O)C(O)C(O)CO)C2=O (stereo not given)
[12]
  AC50: inconclusive
[13]
  AC50: inconclusive

## CCc1ccc(Nc2nnc(SCC(=O)NC(=O)CN3CCCC3=O)s2)cc1
[14]
  IC50: 15 µM (active)

## CCC(=O)N1CCc2cc(Br)cc(S(=O)(=O)N(C)c3ccc(OC)cc3)c21
[8]
  EC50: 0.0271 µM (active)

## CN(CCc1nc2cc(Cl)ccc2[nH]1)Cc1nc(CC2CC2)no1
[15]
  EC50: 5.31 µM (active)

## Fc1ccc(-c2nn(-c3ccccc3)cc2CNCc2ccccc2)cc1
[1]
  CC50: 17.9 µM (active)
[16]
  CC50: 26 µM (active)
[15]
  EC50: 5.31 µM (active)
[17]
  Absolute IC50 (XBP1): 10 µM
[18]
  IC50: 21.6 µM (active)

## CCNc1nc(NCC)n2c(SCC(=O)Nc3ccc(OC(F)F)cc3)nnc2n1
[14]
  IC50: 9.83 µM (active)

## CCc1ccc(NC(=O)[C@H](Cc2c[nH]c3ccccc23)NC(=O)[C@@H]2Cc3ccccc3CN2)cc1
[2]
  EC50: > 150 µM (not active)
[3]
  EC50: 10.8 µM (active)
[5]
  EC50: > 150 µM (not active)
[6]
  EC50: > 150 µM (inconclusive)
[19]
  EC50: > 133 µM (inactive)

## CC1(C)Cc2c(c(-c3ccco3)nc3sc4c(NCC5CCCO5)ncnc4c23)CO1 (stereo not given)
[8]
  EC50: 0.0919 µM (active)

## CCc1ccccc1N=C(S)NCc1ccc2c(c1)OCO2
[13]
  AC50: inconclusive

## Cc1cc(NC(=O)CN2CCc3ccccc3C2)nc2c1c(=O)oc1ccccc12
[15]
  EC50: 1.19 µM (active)

## COc1cc(OC)c(OC)cc1/C=C1\CCC/C(=C\c2cc(OC)c(OC)cc2OC)C1=O
[20]
  EC50: 15.5 µM (active)
[21]
  IC50: 5.03 µM (active)
[22]
  IC50: 18.1 µM (active)
[23]
  EC50: 13 µM (active)
[24]
  IC50: 6.27 µM (active)
[4]
  EC50: 1.51 µM (active)
[25]
  EC50: 6.67 µM (active)

## CCc1cccc(CC)c1N=C(S)NCC(c1cccnc1)N(C)C (stereo not given)
[15]
  EC50: 0.168 µM (active)

## COCCn1c(=O)c(C)nc2cnc(N3CCN(C)CC3)nc21
[13]
  AC50: inconclusive

## O=S(=O)(c1ccc(Cl)cc1)N1CCN2CCCC2C1 (stereo not given)
[15]
  EC50: 4.73 µM (active)

## O=[N+]([O-])c1ccc(Cl)c(/C=N/N2CCN(Cc3ccccc3Cl)CC2)c1
[26]
  AC50: 7.94 µM (inconclusive)
[27]
  AC50: 2.51 µM (inconclusive)
[13]
  AC50: inconclusive

## CCCc1ccc(OCc2nc(-c3ccc(NC(=O)c4cccs4)cc3)no2)cc1
[28]
  AC50: 49.1 µM (active)
[8]
  EC50: 0.539 µM (active)
